Assay results: patent US20260297081A1, “COMPOUNDS AND METHODS OF TREATING CANCERS” (Cullgen Inc., priority 2023, published 2026)
Where two headings read alike, the source gives them in different places. One block for each molecule: values may come before it.

Legend:
MCF7 cells [1] = experiment: Anti-proliferation (viability) of MCF7 cells (Table 7, FIG. 2B); type: cell-based; details: for IC50: Homo sapiens, MCF7, MCF7 cells, 3-6 days, 10-point serial dilution, read-out: GI IC50 in MCF-7
T47D cells [2] = experiment: Anti-proliferation (viability) of ER+ breast cancer T47D cells, 6 days (Table 7, FIG. 2B); type: cell-based; details: for IC50: Homo sapiens, 144 h, T47D cells, 6 days, 10-point serial dilution, read-out: GI IC50 in T47D
Outline: (§1)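 Seed cells, add compound in ten serially diluted concentrations, then incubate (Calu-1: 3 days; T47D: 6 days) before measuring viability.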

T47D parental cells = experiment: CellTiter-Lumi cell viability assay, T47D parental cells, 6 days (FIG. 4); type: cell-based; details: Homo sapiens, 144 h
Experimental: (§2) Furthermore, we developed one ER^+ breast cancer T47D model with acquired resistance after long period of treatment with 1 μM palbociclib (over IC90). Cells were deemed resistant when growing in the presence of palbo at the same rate as parental cells. Palbo resistance was determined by CellTiter-Lumi cell viability assay (FIG. 4, IC50>10,000 nM).

[3] = Mouse pharmacokinetics (FIG. 5); type: in vivo, male Swiss Albino mice; details: plasma, po, mice, 1 mg/kg i.v. and 10 mg/kg p.o., over 12 hours
Experimental: A single dose of CPD-39 via 1 mg/kg intravenous (i.v.) injection or 10 mg/kg oral (p.o.) gavage was evaluated in mice. Plasma concentration of CPD-39 reported at each time points post dosing (5 min, 15 min, 30 min, 1 h, 2 h, 4 h, and 8 h via i.v.; 15 min, 30 min, 1 h, 2 h, 4 h, 6 h, 8 h, and 12 h via p.o.) represents the mean value derived from 3 experimental animals.
Standard PK studies were conducted using male Swiss Albino mice by Sai Life Sciences. A single dose of test compound via intravenous (i.v.) injection or oral (p.o.) gavage was evaluated in fed mice. Plasma concentration of test compound reported at each time points represents the mean value derived from 3 experimental animals. Error bars represent +SD.

Calu-1 cells [4] = experiment: Anti-proliferation (viability) of NSCLC Calu-1 cells, 3 days (Table 7, FIG. 2B); type: cell-based; details: for IC50: Homo sapiens, 72 h, Calu-1 cells, 3 days, 10-point serial dilution, read-out: GI IC50 in Calu-1
Outline: as §1

[5] = system: T47D palbo-resistant cells; experiment: Cell viability in T47D palbociclib-resistant model (FIG. 4); type: cell-based; details: 10-point serial dilution, 6 days
Experimental: T47D cells were cultured long-term to resistance in the presence of 1 μM Palbociclib. Palbo resistance was determined by CellTiter-Lumi cell viability assay. T47D parental or palbo-resistant cells were treated with palbociclib, or heterobifunctional compounds CPD-10 or CPD-39 following a 10-point serial dilution for 6 days.
Calu-1, T47D, MCF7, HCC1428 and other cells were cultured at 37° C. with 5% CO2 in RPMI 1640 or DMEM medium supplemented with 10% fetal bovine serum. Cells were authenticated using the short tandem repeat (STR) assays. Mycoplasma test results were negative. For palbo-resistant cell model, T47D cells were cultured long-term to resistance in the presence of 1 μM Palbociclib. Cells were deemed resistant when growing in the presence of Palbo at the same rate as parental cells.
(§3) Cells were seeded at a density of 2,000-5,000 cells per well in 96-well assay plates and treated with test compounds following a 10-point serial dilution for 3-6 days. Cell viability was determined using the CellTiter-Lumi assay kit according to the manufacturer's instructions. The dose-response curves were determined and IC50 values were calculated using the GraphPad Prism software following a nonlinear regression (least squares fit) method. Data presented was mean±standard deviation (SD)unless otherwise indicated.

[6] = Pharmacokinetics in mice, single dose i.v. injection or oral gavage (FIG. 5); type: in vivo; details: mouse, plasma
Experimental: To investigate the pharmacokinetics of heterobifunctional compounds, exemplified by CPD-39, a single dose of CPD-39 via 1 mg/kg intravenous (i.v.) injection or 10 mg/kg was evaluated in mice. Plasma concentration reported at each time points post dosing represents the mean value derived from 3 experimental animals.

CDK4 = CDK4 (Homo sapiens, UniProt P11802+Q16531); experiment: CDK4 percentage degradation in Calu-1 cells (Table 6); type: cell-based; set-up: Cells that express cyclin D1-3 and CDK4/6 proteins were treated with heterobifunctional compounds; endogenous in cells; host or cells: Calu-1; details: 16 hours; for inhibition at 0.04 µM: 40 nM; for inhibition at 0.2 µM: 200 nM
Outline: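 Calu-1 cells exposed to heterobifunctional compounds at 40 nM or 200 nM for 16 h. Cyclin D1 and CDK4 levels measured by Western blot of RIPA lysates (BCA-normalised loading), bands quantified by densitometry and expressed as percentage degradation.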

[7] = system: T47D palbo-resistant cells; experiment: CellTiter-Lumi cell viability assay, T47D palbo-resistant cells, 6 days (FIG. 4); type: cell-based; details: Homo sapiens, 144 h
Experimental: as §2

T47D cells [8] = experiment: Cell viability / anti-proliferation assay, T47D (Table 7, FIG. 2B); type: cell-based; details: 10-point serial dilution, 3-6 days
Experimental: (§4) NSCLC Calu-1 or ER+ breast cancer T47D cells were treated with selected heterobifunctional compounds following a 10-point serial dilution for 3 or 6 days, respectively.
(§5) Cells were treated with heterobifunctional compounds following a 10-point serial dilution for 3-6 days. In Calu-1 cells, A: anti-proliferation activity IC50≤10 nM; B: anti-proliferation activity IC50<50 nM, and ≥10 nM; C: anti-proliferation activity IC50≥50 nM. In T47D cells, A: anti-proliferation activity IC50≤50 nM; B: anti-proliferation activity IC50≤100 nM, and ≥50 nM; C: anti-proliferation activity IC50≥100 nM; -, data not available.
(§6) Calu-1, MCF7 or T47D cells were seeded in 96-well plates and treated with CPD-10, or CPD-143 following a 10-point serial dilution for 3-6 days (FIG. 2B).
(§7) Calu-1, T47D, MCF7, HCC1428 and other cells were cultured at 37° C. with 5% CO2 in RPMI 1640 or DMEM medium supplemented with 10% fetal bovine serum. […]
as §3, with “Data presented was mean±standard deviation (SD)unless otherwise indicated.” left out

MCF7 cells [9] = experiment: Cell viability / anti-proliferation assay, MCF7 (Table 7, FIG. 2B); type: cell-based; details: 10-point serial dilution, 3-6 days
Experimental: as §4, §5, §6, §7
as §3, with “Data presented was mean±standard deviation (SD)unless otherwise indicated.” left out

HCC1428 cells [10] = experiment: Flow cytometric analysis of Annexin V/7-AAD stained HCC1428 cells (apoptosis), 6 days (FIG. 3B); type: cell-based; details: HCC1428; 400 nM; 6 days
Experimental: (§8) T47D cells were treated with DMSO, palbociclib, heterobifunctional compound CPD-10 for 6 days at doses approximating IC50and IC90 concentrations as indicated (FIG. 3A). HCC1428 cells were treated with DMSO, palbociclib, heterobifunctional compound CPD-10, or its negative control compound CPD-143 for 6 days at doses approximating IC90 concentrations as indicated (FIG. 3B). Cells were harvested by trypsinization, staining was carried out using the Annexin V Apoptosis Detection Kit. The percentages of early apoptotic (Annexin V^+7-AAD^−, lower right quadrant), late apoptotic (Annexin V^+7-AAD^+, upper right quadrant) and necrotic cells (Annexin V^−7-AAD^+, upper left quadrant) are indicated on dot plots.

T47D cells [11] = experiment: Downstream inhibition in T47D cells with CPD-10 and negative control CPD-143 (FIG. 2A); type: cell-based; details: 48 hours, dose range
Experimental: (§9) T47D cells were treated with a dose range of heterobifunctional compound CPD-10, and its negative control compound CPD-143 for 48 hours (FIG. 2A).
(§10) Cultured cells were washed with cold PBS once and lysed in cold RIPA buffer supplemented with protease inhibitors and phosphatase inhibitors (Beyotime Biotechnology). The solutions were then incubated at 4 ? for 30 min with gentle agitation to fully lysed cells. Cell lysates were centrifuged at 13,000 rpm for 10 min at 4 ? and pellets were discarded. Total protein concentrations in the lysates were determined following BCA assays (Beyotime Biotechnology). Cell lysates were mixed with Laemmli loading buffer and heated at 99° C. for 5 min. Proteins were resolved on SDS-PAGE and visualized using Western ECL Substrate kits on a ChemiDoc MP Imaging system (Bio-Rad). Protein bands were quantitated using the Image Lab software provided by Bio-Rad.

Calu-1 cells [12] = experiment: Cell viability / anti-proliferation assay, Calu-1 (Table 7, FIG. 2B); type: cell-based; details: 10-point serial dilution, 3-6 days
Experimental: as §4, §5, §6, §7
as §3, with “Data presented was mean±standard deviation (SD)unless otherwise indicated.” left out

HCC1428 cells [13] = experiment: Annexin V apoptosis flow cytometry, HCC1428 (FIG. 3B); type: cell-based; details: HCC1428, dose approximating IC90, 6 days
Experimental: as §8, with “IC50 and” for “IC50and”, “Kit.” for “Kit. The percentages of early apoptotic (Annexin V^+7-AAD^−, lower right quadrant), late apoptotic (Annexin V^+7-AAD^+, upper right quadrant) and necrotic cells (Annexin V^−7-AAD^+, upper left quadrant) are indicated on dot plots.”
Assays were performed on the CytoFLEX Cytometer (Beckman Coulter), and data were analyzed using CytExpert software. For cell death and apoptosis analysis, cells were harvested by trypsinization, staining was carried out using the Annexin V Apoptosis Detection Kit (BD Biosciences). Briefly, cells were resuspended in 1× binding buffer and incubated with fluorochrome-conjugated Annexin V and 7-AAD for 15 min in darkness at room temperature.

CCND = CCND degradation in T47D cells with CPD-10 and negative control CPD-143 (FIG. 2A); type: cell-based; details: 48 hours, dose range
Experimental: as §9, §10

[14] = system: CCND1, CCND3, CDK4 in T47D cells; experiment: Immunoblot of CCND1, CCND3, CDK4 protein degradation in T47D cells (FIG. 2A, 48 hours); type: cell-based; details: negative control vs CPD-10
Experimental: Specific exemplary heterobifunctional compounds were characterized in Calu-1, MCF7, T47D and other cells. Cells that express cyclin D1-3 and CDK4/6 proteins were treated with heterobifunctional compounds disclosed herein at indicated concentrations. MCF7 cells were deprived of serum for 2 hours followed by the treatment with heterobifunctional compounds. Cells were collected, lysed and subject to immunoblotting using an antibody specific to CCND1, CCND2, CCND3, CDK4, or FoxM1, cyclin A2, or phosphorylated Rb (S807/811) proteins. Tubulin or GAPDH was used as the loading control. DMSO treatment was used as the negative control.
To verify that heterobifunctional compound-mediated degradation is dependent on the binding to CDK4-cyclin D complex, a negative control compound, CPD-143, which is derived from active heterobifunctional compound CPD-10 was designed. CPD-143 bears the same DDB1 ligand and linker as CPD-10 but with a modified warhead to impair the binding of the control compound to CDK4.

Sequence of CDK4 (P11802 2-303 limits assumed): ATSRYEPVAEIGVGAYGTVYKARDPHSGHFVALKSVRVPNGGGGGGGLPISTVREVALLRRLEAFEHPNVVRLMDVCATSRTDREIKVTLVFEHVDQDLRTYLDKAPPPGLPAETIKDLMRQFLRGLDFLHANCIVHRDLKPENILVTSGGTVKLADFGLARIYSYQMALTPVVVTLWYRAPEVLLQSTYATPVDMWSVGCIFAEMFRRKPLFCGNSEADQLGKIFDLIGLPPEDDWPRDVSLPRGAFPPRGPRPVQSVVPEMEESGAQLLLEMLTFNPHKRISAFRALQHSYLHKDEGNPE
Sequence of CDK4 (P24385 whole entry partner): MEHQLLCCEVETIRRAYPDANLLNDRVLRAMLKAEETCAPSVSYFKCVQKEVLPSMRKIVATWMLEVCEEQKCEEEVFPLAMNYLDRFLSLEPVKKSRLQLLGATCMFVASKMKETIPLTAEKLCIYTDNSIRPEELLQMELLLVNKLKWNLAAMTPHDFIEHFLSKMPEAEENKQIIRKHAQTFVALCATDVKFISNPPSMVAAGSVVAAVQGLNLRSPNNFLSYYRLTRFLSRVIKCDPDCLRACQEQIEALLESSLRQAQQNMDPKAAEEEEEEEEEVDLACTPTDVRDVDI
Sequence of CDK4 (Q16531 2-1140 limits assumed): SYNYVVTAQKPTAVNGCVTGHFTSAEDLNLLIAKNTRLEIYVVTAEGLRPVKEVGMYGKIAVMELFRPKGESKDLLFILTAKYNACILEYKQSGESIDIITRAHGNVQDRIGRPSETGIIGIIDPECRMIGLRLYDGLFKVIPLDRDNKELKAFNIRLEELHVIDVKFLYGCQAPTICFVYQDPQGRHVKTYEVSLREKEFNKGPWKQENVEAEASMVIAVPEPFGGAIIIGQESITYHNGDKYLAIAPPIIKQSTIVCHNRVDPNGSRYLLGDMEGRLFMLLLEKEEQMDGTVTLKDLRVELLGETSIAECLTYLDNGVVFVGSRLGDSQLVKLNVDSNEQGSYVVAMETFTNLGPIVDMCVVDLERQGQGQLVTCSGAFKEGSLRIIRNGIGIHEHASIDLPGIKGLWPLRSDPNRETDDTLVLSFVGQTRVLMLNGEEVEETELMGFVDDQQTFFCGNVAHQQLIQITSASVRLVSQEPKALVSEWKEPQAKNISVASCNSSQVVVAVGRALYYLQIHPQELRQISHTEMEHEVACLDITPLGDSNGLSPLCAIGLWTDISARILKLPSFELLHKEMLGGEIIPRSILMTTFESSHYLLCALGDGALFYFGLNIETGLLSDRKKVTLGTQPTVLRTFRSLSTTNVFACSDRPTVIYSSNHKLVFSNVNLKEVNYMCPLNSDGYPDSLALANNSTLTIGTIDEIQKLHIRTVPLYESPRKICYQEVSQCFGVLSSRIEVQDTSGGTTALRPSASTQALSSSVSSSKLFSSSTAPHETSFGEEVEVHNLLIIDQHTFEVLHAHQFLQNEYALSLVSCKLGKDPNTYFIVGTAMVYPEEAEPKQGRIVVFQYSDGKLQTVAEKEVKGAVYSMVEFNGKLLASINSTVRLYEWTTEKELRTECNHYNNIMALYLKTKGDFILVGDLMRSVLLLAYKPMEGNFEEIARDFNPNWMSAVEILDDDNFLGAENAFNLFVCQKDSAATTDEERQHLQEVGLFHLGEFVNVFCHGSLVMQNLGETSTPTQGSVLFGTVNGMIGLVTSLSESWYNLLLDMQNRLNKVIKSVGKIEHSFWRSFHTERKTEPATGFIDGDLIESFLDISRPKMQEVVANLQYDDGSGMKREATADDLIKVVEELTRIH

IC50 (MCF7 cells [1]): > 100 nM
IC50 (T47D cells [2]): ≤ 50 nM
bioavailability at 12 h [3]: ~15%
IC50 (Calu-1 cells [4]): ≤ 10 nM
AUC(0-inf) ([6]; iv, mice, 1 mg/kg i.v., read-out: AUCinf, i.v.): 1030 ng·h/mL
clearance ([6]; iv, mice, 1 mg/kg i.v., read-out: CL, i.v.): 16.3 mL/min/kg
Vd ([6]; iv, mice, 1 mg/kg i.v., read-out: VSS, i.v.): 1.6 L/kg
AUC(0-inf) ([6]; po, fed mice, 10 mg/kg p.o., read-out: AUCinf, p.o.): 1580 ng·h/mL
bioavailability ([6]; fed mice, 10 mg/kg oral vs 1 mg/kg i.v.): > 15%
inhibition at 0.04 µM (CDK4): 50 to 80%
inhibition at 0.2 µM (CDK4): 50 to 80%
IC50 [7]: 82.5 nM
SMILES: CNc1ccc(C(=O)Nc2ccc(N(C)C)nn2)c(NC2CC3(CC(NC(=O)CN4CCN(c5ccc(Nc6ncc7c(C)c(C(C)=O)c(=O)n(C8CCCC8)c7n6)nc5)CC4)C3)C2)n1 (stereo not drawn) [CPD-39, 2-((6-(2-(4-(6-((6-Acetyl-8-cyclopentyl-5-methyl-7-oxo-7,8-dihydropyrido[2,3-d]pyrimidin-2-yl)amino)pyridin-3-yl)piperazin-1-yl)acetamido)spiro[3.3]heptan-2-yl)amino)-N-(6-(dimethylamino)pyridazin-3-yl)-6-(methylamino)nicotinamide]
IC50 (T47D parental cells): 32.6 nM
cell viability in palbociclib-resistant model [5]: remained effective in T47D palbo-resistant model

IC50 (MCF7 cells [1]): > 100 nM
IC50 (T47D cells [2]): ≥ 100 nM
IC50 (Calu-1 cells [4]): ≥ 50 nM
inhibition at 0.04 µM (CDK4): < 30%
inhibition at 0.2 µM (CDK4): 50 to 80%
fold decrease in DC50 (degradation potency) compared with CPD-10 [14]: > 100 -fold
SMILES: CNc1ccc(C(=O)Nc2ccc(N(C)C)nn2)c(NCCCCCCCNC(=O)CN2CCN(c3ccc(N(C)c4ncc5c(C)c(C(C)=O)c(=O)n(C6CCCC6)c5n4)nc3)CC2)n1 [CPD-143, 2-((7-(2-(4-(6-((6-acetyl-8-cyclopentyl-5-methyl-7-oxo-7,8-dihydropyrido[2,3-d]pyrimidin-2-yl)(methyl)amino)pyridin-3-yl)piperazin-1-yl)acetamido)heptyl)amino)-N-(6-(dimethylamino)pyridazin-3-yl)-6-(methylamino)nicotinamide]
fold decrease in cellular anti-proliferation activity compared with CPD-10 (MCF7 cells [1]; MCF7, negative control vs CPD-10, FIG. 2B): > 15 -fold
fold decrease in cellular anti-proliferation activity compared with CPD-10 (T47D cells [2]; T47D, negative control vs CPD-10, FIG. 2B): > 50 -fold
cell viability / anti-proliferation activity (T47D cells [8]): much weaker cellular anti-proliferation activities
cell viability / anti-proliferation activity (MCF7 cells [9]): much weaker cellular anti-proliferation activities
Annexin V+ population (HCC1428 cells [10]): 11.8%
downstream inhibition potency (T47D cells [11]): much weaker degradation potencies and downstream inhibition potencies
fold decrease in cellular anti-proliferation activity compared with CPD-10 (Calu-1 cells [4]; Calu-1, negative control vs CPD-10, FIG. 2B): > 50 -fold
cell viability / anti-proliferation activity (Calu-1 cells [12]): much weaker cellular anti-proliferation activities
cell apoptosis (HCC1428 cells [13]): much less effect on cell apoptosis
degradation potency (CCND): much weaker degradation potencies
